{"source": "ChEMBL document CHEMBL4043084", "about": "“Indole Alkaloids from Hunteria zeylanica” (J Nat Prod, 2017)", "key": {"[1]": {"test_system": "A549", "experiment": "Cytotoxicity against human A549 cells assessed as reduction in cell viability at 0.0624 to 40 uM incubated for 48 hrs by MTT assay", "format": "functional, cell-based"}, "[2]": {"test_system": "HeLa", "experiment": "Cytotoxicity against human HeLa cells assessed as reduction in cell viability at 0.0624 to 40 uM incubated for 48 hrs by MTT assay", "format": "functional, cell-based"}, "[3]": {"test_system": "SGC-7901", "experiment": "Cytotoxicity against human SGC7901 cells assessed as reduction in cell viability at 0.0624 to 40 uM incubated for 48 hrs by MTT assay", "format": "functional, cell-based"}, "[4]": {"test_system": "Rhodobium porosum", "experiment": "Insecticidal activity against Rhodobium porosum adults placed on 5 secs compound pre-treated bean leaves after 1 day by leaf dipping protocol based method", "format": "functional"}}, "note": "The source made the active and inactive calls. No cut-off for these calls is given here."}
{"smiles": "CC[C@@]12CCCN3CCc4c(n(c5ccccc45)[C@H](OC)C1)[C@H]32", "values": [{"measurement": "Activity", "setting": "[1]", "result": "inactive"}, {"measurement": "Activity", "setting": "[2]", "result": "inactive"}, {"measurement": "Activity", "setting": "[3]", "result": "inactive"}]}
{"smiles": "C/C=C1\\CN2CCc3c([nH]c4ccccc34)[C@@H]2C[C@@H]1CCO", "values": [{"measurement": "Activity", "setting": "[1]", "result": "inactive"}, {"measurement": "Activity", "setting": "[2]", "result": "inactive"}, {"measurement": "Activity", "setting": "[3]", "result": "inactive"}, {"measurement": "LC50", "setting": "[4]", "result": 360, "unit": "µM"}]}
{"smiles": "C/C=C1/CN2CCc3c4n(c5ccccc35)[C@H](C(=O)OC)[C@@H]1C[C@@H]42", "values": [{"measurement": "Activity", "setting": "[1]", "result": "inactive"}, {"measurement": "Activity", "setting": "[2]", "result": "inactive"}, {"measurement": "Activity", "setting": "[3]", "result": "inactive"}]}
{"smiles": "C/C=C1\\C[N+]2(C)CCc3c([nH]c4ccc(O)cc34)[C@@H]2C[C@@H]1CCO", "note": "(some centres not stated)", "values": [{"measurement": "Activity", "setting": "[1]", "result": "inactive"}, {"measurement": "Activity", "setting": "[2]", "result": "inactive"}, {"measurement": "Activity", "setting": "[3]", "result": "inactive"}]}
{"smiles": "C/C=C1/CN(C)[C@H]2Cc3c([nH]c4ccccc34)[C@@H](c3cc4[nH]c5c(c4cc3O)CCN3C[C@H](CC)[C@@H](CCO)C[C@@H]53)C[C@H]1[C@]2(CO)C(=O)OC", "values": [{"measurement": "Activity", "setting": "[1]", "result": "inactive"}, {"measurement": "Activity", "setting": "[2]", "result": "inactive"}, {"measurement": "Activity", "setting": "[3]", "result": "inactive"}]}
{"smiles": "C=C[C@H]1CN2CCc3c([nH]c4ccc(O)cc34)[C@@H]2C[C@@H]1CCO", "values": [{"measurement": "Activity", "setting": "[1]", "result": "inactive"}, {"measurement": "Activity", "setting": "[2]", "result": "inactive"}, {"measurement": "Activity", "setting": "[3]", "result": "inactive"}, {"measurement": "LC50", "setting": "[4]", "result": 168, "unit": "µM"}]}
{"smiles": "C/C=C1/CN2CCc3c([nH]c4ccc(O)c([C@H]5C[C@@H]6/C(=C\\C)CN(C)[C@@H](Cc7c5[nH]c5ccccc75)[C@@]6(CO)C(=O)OC)c34)[C@@H]2C[C@@H]1CCO", "values": [{"measurement": "Activity", "setting": "[1]", "result": "inactive"}, {"measurement": "Activity", "setting": "[2]", "result": "inactive"}, {"measurement": "Activity", "setting": "[3]", "result": "inactive"}]}
{"smiles": "CC[C@H]1CN2CCc3c([nH]c4ccccc34)[C@@H]2C[C@@H]1CCO", "values": [{"measurement": "Activity", "setting": "[1]", "result": "inactive"}, {"measurement": "Activity", "setting": "[2]", "result": "inactive"}, {"measurement": "Activity", "setting": "[3]", "result": "inactive"}, {"measurement": "LC50", "setting": "[4]", "result": 291, "unit": "µM"}]}
{"smiles": "O[C@@H]1CC[C@H]2CN3CCc4c([nH]c5ccccc45)[C@@H]3C[C@@H]2C1", "values": [{"measurement": "Activity", "setting": "[1]", "result": "inactive"}, {"measurement": "Activity", "setting": "[2]", "result": "inactive"}, {"measurement": "Activity", "setting": "[3]", "result": "inactive"}]}
{"smiles": "C/C=C1/C[N@@+]2(C)CCc3c([nH]c4ccc(O)c([C@H]5C[C@@H]6/C(=C\\C)CN(C)[C@@H](Cc7c5[nH]c5ccccc75)[C@@]6(CO)C(=O)OC)c34)[C@@H]2C[C@@H]1CCO", "values": [{"measurement": "Activity", "setting": "[1]", "result": "inactive"}, {"measurement": "Activity", "setting": "[2]", "result": "inactive"}, {"measurement": "Activity", "setting": "[3]", "result": "inactive"}]}
{"smiles": "C/C=C1/C[N@@+]2(C)CCc3c([nH]c4ccc(O)c([C@H]5C[C@H]6[C@@]7(C(=O)OC)CO[C@H](N(C)[C@H]7Cc7c5[nH]c5ccccc75)[C@@]65O[C@H]5C)c34)[C@@H]2C[C@@H]1CCO", "values": [{"measurement": "Activity", "setting": "[1]", "result": "inactive"}, {"measurement": "Activity", "setting": "[2]", "result": "inactive"}, {"measurement": "Activity", "setting": "[3]", "result": "inactive"}]}
{"smiles": "C/C=C1/CN2CCc3c([nH]c4ccccc34)[C@@H]2C[C@@H]1[C@H](CO)C(=O)OC", "values": [{"measurement": "Activity", "setting": "[1]", "result": "inactive"}, {"measurement": "Activity", "setting": "[2]", "result": "inactive"}, {"measurement": "Activity", "setting": "[3]", "result": "inactive"}]}
{"smiles": "C/C=C1/C[N@@+](C)([O-])[C@H]2Cc3c4n(c5ccccc35)C35[C@@H]6C[C@H]7/C(=C\\C)CN6CCC3(c3ccccc3N5[C@@H]7C(=O)O)[C@H]4CC1[C@H]2C(=O)OC", "note": "(some centres not stated)", "values": [{"measurement": "Activity", "setting": "[1]", "result": "inactive"}, {"measurement": "Activity", "setting": "[2]", "result": "inactive"}, {"measurement": "Activity", "setting": "[3]", "result": "inactive"}]}
{"smiles": "C/C=C1/CN2CC[C@@]34CN5c6c(cccc6[C@@]67CCN8CCC[C@@]9(CC[C@@]56[C@H]9C)[C@H]87)[C@@]35[C@@H]2CC1[C@@H](C(=O)OC)N5c1ccccc14", "values": [{"measurement": "Activity", "setting": "[1]", "result": "inactive"}, {"measurement": "Activity", "setting": "[2]", "result": "inactive"}, {"measurement": "Activity", "setting": "[3]", "result": "inactive"}]}
{"smiles": "O[C@H]1CC[C@H]2CN3CCc4c([nH]c5ccccc45)[C@@H]3C[C@@H]2C1", "values": [{"measurement": "Activity", "setting": "[1]", "result": "inactive"}, {"measurement": "Activity", "setting": "[2]", "result": "inactive"}, {"measurement": "Activity", "setting": "[3]", "result": "inactive"}]}
{"smiles": "O=[N+]([O-])/N=C1\\NCCN1Cc1ccc(Cl)nc1", "values": [{"measurement": "LC50", "setting": "[4]", "result": 49, "unit": "µM"}]}
{"smiles": "CC[C@]12CCCN3CC[C@]4(C(=C(C(=O)OC)C1)Nc1ccccc14)[C@@H]32", "values": [{"measurement": "Activity", "setting": "[1]", "result": "inactive"}, {"measurement": "Activity", "setting": "[2]", "result": "inactive"}, {"measurement": "Activity", "setting": "[3]", "result": "inactive"}]}
{"smiles": "C/C=C1/CN2CC[C@@]34CN5c6c(cccc6[C@@]67CC[N+]8([O-])CCC[C@@]9(CC[C@@]56[C@H]9C)[C@@H]78)[C@@]35[C@@H]2CC1[C@@H](C(=O)OC)N5c1ccccc14", "note": "(some centres not stated)", "values": [{"measurement": "Activity", "setting": "[1]", "result": "inactive"}, {"measurement": "Activity", "setting": "[2]", "result": "inactive"}, {"measurement": "Activity", "setting": "[3]", "result": "inactive"}]}
{"smiles": "CC[C@@]12CCCN3CCc4c(n(c5ccccc45)[C@@H](OC)C1)[C@H]32", "values": [{"measurement": "Activity", "setting": "[1]", "result": "inactive"}, {"measurement": "Activity", "setting": "[2]", "result": "inactive"}, {"measurement": "Activity", "setting": "[3]", "result": "inactive"}]}
{"smiles": "C/C=C1/C[N@+]2(C)CCc3c([nH]c4ccccc34)C[C@H]1CC2", "values": [{"measurement": "Activity", "setting": "[1]", "result": "inactive"}, {"measurement": "Activity", "setting": "[2]", "result": "inactive"}, {"measurement": "Activity", "setting": "[3]", "result": "inactive"}]}
{"smiles": "C=C[C@H]1CN2CCc3c([nH]c4ccc(O)c([C@H]5C[C@@H]6/C(=C\\C)CN(C)[C@@H](Cc7c5[nH]c5ccccc75)[C@@]6(CO)C(=O)OC)c34)[C@@H]2C[C@@H]1CCO", "values": [{"measurement": "Activity", "setting": "[1]", "result": "inactive"}, {"measurement": "Activity", "setting": "[2]", "result": "inactive"}, {"measurement": "Activity", "setting": "[3]", "result": "inactive"}]}
{"smiles": "CC[C@@H]1[C@H]2C[C@@H]3c4[nH]c5ccc(OC)cc5c4[C@@H](C(=O)[C@H]2CO)[C@@H]1N3C", "values": [{"measurement": "Activity", "setting": "[1]", "result": "inactive"}, {"measurement": "Activity", "setting": "[2]", "result": "inactive"}, {"measurement": "Activity", "setting": "[3]", "result": "inactive"}]}
